Like-named read-outs stand apart in the source and are kept apart here.
Experiments:
[1] = Clinical pharmacokinetics of Compound 1 monotherapy, Phase 1/2, advanced malignancies; assay type: in vivo, human
Experimental: The clinical PK of Compound 1 in participants with advanced malignancies (solid and hematologic malignancies) were evaluated in a Phase 1/2, open-label, dose-escalation/dose-expansion, safety and tolerability study. Participants received continuous QD doses of Compound 1. As of the data cutoff date (23 Sep. 2019), 25, 101, and 8 participants who received 8 mg, 12 mg, and 16 mg, respectively, across Part 1 and Part 2 (Compound 1 treated as monotherapy) have been assessed for PK. The PK parameters of parent Compound 1 are summarized in Table 2 and Table 3 (see FIG. 5). Table 2 presents a summary of Compound 1 pharmacokinetic parameters for Compound 1 as monotherapy (part 1 and 2) at cycle 1 day 1. Table 3 presents a summary of Compound 1 pharmacokinetic parameters for Compound 1 as monotherapy (part 1 and 2) at steady-state (cycle 1 day 8).
Blood samples for the determination of plasma concentrations of Compound 1 in Parts 1 and 2 were collected at predose on Cycle 1 Day 1, Cycle 1 Day 2, and Cycle 1 Day 8, and at 0.5, 1, 2, 4, 6, and 8 hours on Cycle 1 Day 1 and Cycle 1 Day 8. The plasma samples of Compound 1 were assayed by a validated LC-MS/MS method.

myelofibrosis [2] = assay: Clinical efficacy in myelofibrosis participants (NCT04279847); assay type: in vivo, human
Experimental: This is a Phase 1, open-label, 2-part study of Compound 1 as monotherapy in participants with relapsed or refractory myelofibrosis (for further details see “Safety and Tolerability Study of INCB057643 in Participants With Myelofibrosis”, ClinicalTrials.gov Identifier: NCT04279847, which is incorporated herein by reference in its entirety). INCB057643 is also referred to as Compound 1 in the present disclosure. […] Participants will receive 4 mg QD of Compound 1 on a continuous basis.
A first participant and a second participant had relapsed myelofibrosis which was treated with Compound 1 monotherapy. A third participant was being treated with single-agent ruxolitinib but having suboptimal responses.

SET-2 cells = assay: SET-2 xenograft model; details: for tumor growth inhibition: Compound 1 10 mg/kg QD, or both, oral; for Fa (tumor growth inhibition level), SET-2: table head: ruxolitinib 60 mg/kg BID, Compound 1 10 mg/kg QD, combination
[3] = test system: MPLW515L expressing bone marrow; assay: MPLW515L mouse model of MPN; details: Compound 1 10 mg/kg QD; for spleen size / white blood cell count: ruxolitinib 60 mg/kg BID, or both, oral, 14 days
[4] = Treatment-emergent adverse events and exposure-safety analysis, Compound 1 monotherapy; assay type: in vivo, human; details: for predicted probability of hyperglycemia incidence: from AUC-hyperglycemia relationship; for AUC: human, plasma, oral
Experimental: The selected clinical safety endpoints as deemed appropriate (eg, frequently occurring TEAEs (treatment-emergent adverse events), incident rate >20% for all AEs (adverse events) and clinically notable adverse events) were used to evaluate exposure-safety relationships. The safety data from a total of […] participants (including both solid tumors and hematologic malignancies) receiving monotherapy treatment of Compound 1 (n=10 at 8 mg, n=89 at 12 mg, and n=8 at 16 mg) in Parts 1 and 2 were used for analysis.
No statistically significant correlation was identified for steady-state Compound 1 AUC and any TEAEs or clinically notable AEs evaluated in this analysis, except hyperglycemia (p-value<0.05). […] Lack of correlation between Compound 1 AUCss.0-24 and TEAEs could be due to the narrow dose range (8, 12, or 16 mg) explored in this study and small sample sizes in the 8-mg and 16-mg groups of the study (the majority of participants received 12 mg).

HEL cells = assay: JAK2 V617F expressing HEL xenograft model of erythroleukemia; assay type: in vivo; details: 14 days
Experimental: For efficacy studies, measurements of tumors were taken every 2 to 3 days using a digital caliper. Tumor volumes were calculated using the formula: Volume=(length×width2)/2 where width was the smaller dimension. Body weights were also monitored.
Animals were sacrificed (1) at end of study, (2) if tumor size reached 10% of total body weight, or (3) if 20% of body weight is lost.
Statistical analyses were performed using Prism Graphpad software. All comparisons were done using 2-way ANOVA with p<0.05 deemed significant.
Female SCID mice were subcutaneously inoculated with 10^7 HEL cells in matrigel. When tumors reached approximately 160 mm^3, mice (n=10 per group) were dosed orally with Compound 1 for 14 days as follows: • 1. BID at either 1 or 3 mg/kg, or vehicle control • 2. QD at 3, 10, or 30 mg/kg

[5] = test system: cMyc, a BRD4 target gene, in KMS12BM cells; assay: Ex vivo pharmacodynamic spiked cell assay, cMyc protein in KMS12BM cells in participant plasma; assay type: cell-based, human; details: for inhibition of cMyc at trough: Cycle 1 Day 8 predose; for average cMyc inhibition at steady state: Day 8, predose to 8 hours
Experimental: Pharmacodynamic analysis was performed using an ex vivo assay measuring protein levels of cMyc, a BRD4 target gene, in KMS12BM cells, which were spiked into participant plasma samples collected at predose and various postdose timepoints. […] The average cMyc inhibition at steady state (Day 8, from predose to 8 hours) was 30%, 44%, and 65% for the dose of 8 mg (n=11), 12 mg (n=51), and 16 mg (n=7), respectively. […] Inhibition of cMyc was reduced to <10% at trough (Cycle 1 Day 8 predose) in the 8-mg and 12-mg cohorts and ˜30% in the 16-mg cohort.

myelofibrosis [6] = details: ruxolitinib monotherapy in clinical trials; cited from earlier work
[7] = ruxolitinib 30 mg/kg BID, 14 days
[8] = ruxolitinib 60 mg/kg BID, combination
[9] = monotherapy 8, 12 or 16 mg, all grades and causality

Structure (SMILES): CN1C(=O)C(C)(C)Oc2c(-c3cn(C)c(=O)c4[nH]ccc34)cc(S(C)(=O)=O)cc21 [Compound 1, 2,2,4-trimethyl-8-(6-methyl-7-oxo-6,7-dihydro-1H-pyrrolo[2,3-c]pyridin-4-yl)-6-(methylsulfonyl)-2H-1,4-benzoxazin-3(4H)-one]
- Tmax, median ([1]; 8 mg QD, cycle 1 day 1, N = 12): 2.00 h
- dose proportionality of steady-state Cmax and AUC0-24 ([1]; 8 to 16 mg QD): proportional to dose
- steady-state oral clearance, geometric mean CLss/F ([1]; 8 to 16 mg QD): 9.92 to 10.7 L/h
- AUC(0-t) ([1]; human, plasma, oral, 2 mg, 2 mg QD, linear PK extrapolation from 12 mg QD, read-out: estimated steady-state AUC0-24): 0.457 µM·h
- AUC(0-t) ([1]; human, plasma, oral, 4 mg, 4 mg QD, linear PK extrapolation from 12 mg QD, read-out: estimated steady-state AUC0-24): 0.913 µM·h
- AUC(0-t) ([1]; human, plasma, oral, 8 mg, 8 mg QD, cycle 1 day 1, N = 12, read-out: AUClast, geometric mean (CV %)): 2.09 µM·h
- AUC(0-t) ([1]; human, plasma, oral, 8 mg, 8 mg QD, cycle 1 day 1, N = 12, read-out: AUClast, mean ± SD): 2.31 ± 1.12 µM·h
- Cmax ([1]; human, plasma, oral, 8 mg, 8 mg QD, cycle 1 day 1, N = 12, read-out: Cmax, geometric mean (CV %)): 188 nM
- Cmax ([1]; human, plasma, oral, 8 mg, 8 mg QD, cycle 1 day 1, N = 12, read-out: Cmax, mean ± SD): 201 ± 83.6 nM
- AUC(0-t) ([1]; human, plasma, oral, 12 mg, 12 mg QD, cycle 1 day 1, N = 99, read-out: AUClast, geometric mean (CV %)): 2.55 µM·h
- AUC(0-t) ([1]; human, plasma, oral, 12 mg, 12 mg QD, cycle 1 day 1, N = 99, read-out: AUClast, mean ± SD): 2.74 ± 1.09 µM·h
- Cmax ([1]; human, plasma, oral, 12 mg, 12 mg QD, cycle 1 day 1, N = 99, read-out: Cmax, geometric mean (CV %)): 249 nM
- Cmax ([1]; human, plasma, oral, 12 mg, 12 mg QD, cycle 1 day 1, N = 99, read-out: Cmax, mean ± SD): 266 ± 94.7 nM
- AUC(0-t) ([1]; human, plasma, oral, 12 mg, 12 mg QD, read-out: steady-state AUC0-24, geometric mean): 2.74 µM·h
- Cmax ([1]; human, plasma, oral, 12 mg, 12 mg QD, read-out: steady-state Cmax, geometric mean): 272 nM
- AUC(0-t) ([1]; human, plasma, oral, 16 mg, 16 mg QD, cycle 1 day 1, N = 7, read-out: AUClast, geometric mean (CV %)): 3.21 µM·h
- AUC(0-t) ([1]; human, plasma, oral, 16 mg, 16 mg QD, cycle 1 day 1, N = 7, read-out: AUClast, mean ± SD): 3.37 ± 1.06 µM·h
- Cmax ([1]; human, plasma, oral, 16 mg, 16 mg QD, cycle 1 day 1, N = 7, read-out: Cmax, geometric mean (CV %)): 329 nM
- Cmax ([1]; human, plasma, oral, 16 mg, 16 mg QD, cycle 1 day 1, N = 7, read-out: Cmax, mean ± SD): 343 ± 93.2 nM
- Tmax ([1]; human, plasma, oral, 12 mg QD, cycle 1 day 1, N = 99, read-out: Tmax, median): 0.5 h
- half-life ([1]; human, plasma, oral, 12 mg QD, steady-state, read-out: t1/2, geometric mean (converted)): 9.17 h
- AUC ([1]; human, plasma, oral, 16 mg QD, read-out: steady-state AUC, geometric mean): 3.61 µM·h
- Vd/F ([1]; human, plasma, oral, 8 to 16 mg QD, read-out: volume of distribution, geometric mean Vz/F): 138 to 197 L
- Tmax ([1]; human, plasma, oral, multiple-dose, fasted state, 8 to 16 mg QD, read-out: median Tmax): 1 to 2 h
- half-life ([1]; human, plasma, oral, multiple-dose, not dose-dependent, read-out: steady-state geometric mean half-life (converted)): ~10 h
- accumulation of exposure (steady-state AUC0-24 vs first dose AUC0-24) ([1]; once daily dosing): < 10%
- time to steady-state (predicted) ([1]; once daily dosing, based on effective half-life of 10 hours): 2 days
- spleen length reduction by spleen palpation (myelofibrosis [2]; first participant, monotherapy 12 mg QD, nadir vs baseline): 92.5%
- clinical outcome (myelofibrosis [2]; second participant, monotherapy 8 mg QD, on study 24 days): only disease progression
- tumor growth inhibition (SET-2 cells; [7]): significantly inhibited tumor growth
- Fa (tumor growth inhibition level), SET-2 (SET-2 cells): 0.24
- spleen size [3]: able to reduce spleen size
- white blood cell count [3]: able to slow the expansion of white blood cells
- Fa (fraction affected, change vs vehicle), MPL SPL [3, 8]: 0.5558
- MPL SPL (sizes of the spleens) [3, 8]: 0.3611 grams
- predicted probability of hyperglycemia incidence ([4]; 2 mg): 8.0%
- predicted probability of hyperglycemia incidence ([4]; 4 mg): 9.2%
- AUCss,0-24, fourth quartile ([4]; FIG. 8, monotherapy 8-16 mg QD): 3.61 µM·h
- AUCss,0-24, second quartile ([4]; FIG. 8, monotherapy 8-16 mg QD): 2.07 µM·h
- AUCss,0-24, third quartile ([4]; FIG. 8, monotherapy 8-16 mg QD): 2.62 µM·h
- AUC ([4]; 12 mg, participant 1011, Grade 4 gastrointestinal hemorrhage, 12 mg QD, read-out: AUCss,0-24 of individual participant): 3.47 µM·h
- AUC ([4]; 12 mg, participant 9002, Grade 4 gastrointestinal hemorrhage, 12 mg QD, read-out: AUCss,0-24 of individual participant): 3.61 µM·h
- AUC ([4]; 12 mg, participant 12005, Grade 3 INR increased, 12 mg QD, concomitant warfarin, read-out: AUCss,0-24 of individual participant): 6.99 µM·h
- AUC ([4]; 16 mg, participant 16001, Grade 3 INR increased, 16 mg QD, concomitant warfarin, read-out: AUCss,0-24 of individual participant): 9.77 µM·h
- AUC ([4]; FIG. 8, monotherapy 8-16 mg QD, read-out: AUCss,0-24, first quartile): 0.893 to 2.04 µM·h
- clinically notable AE incidence: INR increased ([4]; monotherapy 8, 12 or 16 mg): 8.5%
- clinically notable AE incidence: epistaxis ([4]; monotherapy 8, 12 or 16 mg): 9.9%
- clinically notable AE incidence: gastrointestinal hemorrhage ([4]; monotherapy 8, 12 or 16 mg): 1.9%
- clinically notable AE incidence: hyperglycemia ([4]; monotherapy 8, 12 or 16 mg): 17.4%
- TEAE incidence: anemia [4, 9]: 27.3%
- TEAE incidence: constipation [4, 9]: 20.7%
- TEAE incidence: decreased appetite [4, 9]: 35.5%
- TEAE incidence: diarrhea [4, 9]: 27.3%
- TEAE incidence: dysgeusia [4, 9]: 19.8%
- TEAE incidence: fatigue [4, 9]: 45.5%
- TEAE incidence: nausea [4, 9]: 47.9%
- TEAE incidence: thrombocytopenia [4, 9]: 28.9%
- TEAE incidence: vomiting [4, 9]: 28.1%
- AUCss,0-24 of individual participant ([4]; participant 9002, Grade 4 gastrointestinal hemorrhage, 12 mg QD): 2.15 µM·h
- AUCss,0-24 of individual participant ([4]; participant 16001, Grade 3 INR increased, 16 mg QD, concomitant warfarin): 9.79 µM·h
- tumor regression (HEL cells; 30 mg/kg QD oral): one statistical tumor regression
- tolerability (body weight loss) (HEL cells; all doses, oral): All doses were tolerated
- tumor growth (mean tumor volume) vs vehicle (HEL cells; oral, 1 or 3 mg/kg BID, 3, 10 or 30 mg/kg QD, p<0.02 each group): inhibited tumor growth in a dose-related manner
- inhibition of cMyc at trough ([5]; 8 mg): < 10%
- average cMyc inhibition at steady state ([5]; 8 mg, n=11): 30%
- inhibition of cMyc at trough ([5]; 12 mg): < 10%
- average cMyc inhibition at steady state ([5]; 12 mg, n=51): 44%
- inhibition of cMyc at trough ([5]; 16 mg): ~30%
- average cMyc inhibition at steady state ([5]; 16 mg, n=7): 65%
- IC50 ([5]; Homo sapiens, KMS-12-BM, 70 participants, nonlinear regression, plasma concentration, read-out: IC50 (ex vivo, composite PK PD curve)): 202 nM

Structure (SMILES): N#CC[C@H](C1CCCC1)n1cc(-c2ncnc3[nH]ccc23)cn1 [ruxolitinib, (3R)-3-cyclopentyl-3-[4-(7H-pyrrolo[2,3-d]pyrimidin-4-yl)-1H-pyrazol-1-yl]propanenitrile]
- reduction in spleen size (myelofibrosis [6]): about 35%
- tumor growth inhibition (SET-2 cells; [7]): significantly inhibited tumor growth
- tumor growth inhibition (SET-2 cells; ruxolitinib 60 mg/kg BID, 11 days): significant tumor growth inhibition
- Fa (tumor growth inhibition level), SET-2 (SET-2 cells): 0.44
- spleen size [3]: able to reduce spleen size
- white blood cell count [3]: more profound effect on white blood cell count reduction than Compound 1
